Reference: PMC7057333 (ACS Omega, 2020)
Like-named read-outs stand apart in the source and are kept apart here. Bridge positions count the residues as written; N and C are the ends. Square brackets hold non-standard residues; d marks the D form. Peptide text beside a SMILES is read from it. Cit = NC(=O)NCCC[C@H](N)C(=O)O

What was measured:
LSD1 [1] = target: T1, LSD1 (Homo sapiens, UniProt O60341); assay: HRP-coupled fluorescence LSD1 demethylation activity and inhibition assay, substrate H3_1-21 K4(Me); assay type: biochemical; settings: for mode of inhibition / inhibition of LSD1 (in words): enzyme activity assay; for mode of inhibition: inhibition kinetics; for Km: Tris buffer pH 8.0
T1 construct: made in house; host or cells: Escherichia coli Rosetta 2 (pET15b)

LSD1 [2] = target: T1, LSD1; assay: SPR biosensor interaction kinetic assay with immobilized LSD1 (15 °C, TBS-T with DTT); assay type: binding
[3] = 100 μM, supplement sheet SMILES and Activity, read-out: Inhibition at 100 μM (%)
[4] = read-out: % inhibition at 100 μM
[5] = supplement sheet SMILES and Activity, read-out: IC50

| inhibition at 100 µM (LSD1 [1]; [3]) [%] | inhibition at 100 µM (LSD1 [1]; [4]) [%] | IC50 (LSD1 [1]; [5]) [µM] | Molecule | other results |
| --- | --- | --- | --- | --- |
| – | < 20 | – | CSCC[C@@H]1NC(=O)[C@H](NC(=O)[C@H](CCCNC(=N)N)NC(=O)[C@H](C)N)CCC(=O)NCCCC[C@@H](C(=O)N[C@@H](C)C(=O)N[C@@H](CCCNC(=N)N)C(=O)N[C@@H](CCCCN)C(=O)N[C@@H](CO)C(=O)N[C@H](C(N)=O)[C@@H](C)O)NC(=O)[C@H](CCC(N)=O)NC1=O (relative stereo) [Peptide 32] | Ki (LSD1 [1]; read-out: Ki): > 100 µM |
| 75 | 75 | – | CSCC[C@@H]1NC(=O)[C@@H](NC(=O)[C@H](CCCNC(=N)N)NC(=O)[C@H](C)N)CCC/C=C\CCC[C@@H](C(=O)N[C@@H](C)C(=O)N[C@@H](CCCNC(=N)N)C(=O)N[C@@H](CCCCN)C(=O)N[C@@H](CO)C(=O)N[C@H](C(N)=O)[C@@H](C)O)NC(=O)[C@H](CCC(N)=O)NC1=O [Peptide 23, ARG^penMQG^penARKST-NH2] | – |
| 65 | 65 | 62 | CSCC[C@@H]1NC(=O)[C@@H](NC(=O)[C@H](CCCNC(=N)N)NC(=O)[C@H](C)N)CCCCNC(=O)CC[C@@H](C(=O)N[C@@H](C)C(=O)N[C@@H](CCCNC(=N)N)C(=O)N[C@@H](CCCCN)C(=O)N[C@@H](CO)C(=O)N[C@H](C(N)=O)[C@@H](C)O)NC(=O)[C@H](CCC(N)=O)NC1=O [Peptide 27] | Ki (LSD1 [1]; read-out: Ki): 31 µM |
| 90 | 90 | 14 | CSCC[C@@H]1NC(=O)[C@@H](NC(=O)[C@H](CCCNC(=N)N)NC(=O)[C@@H]2CCCN2)CCCCNC(=O)CC[C@@H](C(=O)N[C@@H](C)C(=O)N[C@@H](CCCNC(=N)N)C(=O)N[C@@H](CCCCN)C(=O)N[C@@H](CO)C(=O)N[C@H](C(N)=O)[C@@H](C)O)NC(=O)[C@H](CCC(N)=O)NC1=O [Peptide 29] (H-PRKMQEARKST-NH2; lactam 3-6) | Ki (LSD1 [1]; read-out: Ki): 7 µM |
| 75 | 75 | 44 | CSCC[C@@H]1NC(=O)[C@@H](NC(=O)[C@H](CCCNC(=N)N)NC(=O)[C@@H]2CCCN2)CCC(=O)NCCCC[C@@H](C(=O)N[C@@H](C)C(=O)N[C@@H](CCCNC(=N)N)C(=O)N[C@@H](CCCCN)C(=O)N[C@@H](CO)C(=O)N[C@H](C(N)=O)[C@@H](C)O)NC(=O)[C@H](CCC(N)=O)NC1=O [Peptide 30] (H-PREMQKARKST-NH2; lactam 3-6) | Ki (LSD1 [1]; read-out: Ki): 22 µM |
| 97 | 97 | 13 | CSCC[C@@H]1NC(=O)[C@@H](NC(=O)[C@H](CCCNC(N)=O)NC(=O)[C@H](C)N)CCC(=O)NCCCC[C@@H](C(=O)N[C@@H](C)C(=O)N[C@@H](CCCNC(=N)N)C(=O)N[C@@H](CCCCN)C(=O)N[C@@H](CO)C(=O)N[C@H](C(N)=O)[C@@H](C)O)NC(=O)[C@H](CCC(N)=O)NC1=O [Peptide 33] (H-A[Cit]EMQKARKST-NH2; lactam 3-6) | – |
| 70 | 70 | 60 | CSCC[C@@H]1NC(=O)[C@@H](NC(=O)[C@H](CCCNC(=N)N)NC(=O)[C@H](C)N)Cc2cn(nn2)CCCC[C@@H](C(=O)N[C@@H](C)C(=O)N[C@@H](CCCNC(=N)N)C(=O)N[C@@H](CCCCN)C(=O)N[C@@H](CO)C(=O)N[C@H](C(N)=O)[C@@H](C)O)NC(=O)[C@H](CCC(N)=O)NC1=O [Peptide 36, ARG^prgMQK^azdARKST-NH2] | inhibition of LSD1 (in words) (LSD1 [1]): weak competitive inhibitors; Ki (LSD1 [1]; read-out: Ki): 30 µM |

Second part, the molecule before the results:

| Molecule | inhibition at 100 µM (LSD1 [1]; [3]) [%] | inhibition at 100 µM (LSD1 [1]; [4]) [%] | IC50 (LSD1 [1]; [5]) [µM] | other results |
| --- | --- | --- | --- | --- |
| CSCC[C@@H]1NC(=O)[C@H](NC(=O)[C@H](CCCNC(=N)N)NC(=O)[C@H](C)N)CCC/C=C\CCC[C@@H](C(=O)N[C@@H](C)C(=O)N[C@@H](CCCNC(=N)N)C(=O)N[C@@H](CCCCN)C(=O)N[C@@H](CO)C(=O)N[C@H](C(N)=O)[C@@H](C)O)NC(=O)[C@H](CCC(N)=O)NC1=O (relative stereo) [Peptide 24, AR*G^penMQG^penARKST-NH2] | 95 | 95 | – | mode of inhibition (LSD1 [1]): competitive inhibitor |
| CSCC[C@@H]1NC(=O)[C@H](NC(=O)[C@H](CCCNC(=N)N)NC(=O)[C@H](C)N)CCC/C=C\CCC[C@H](C(=O)N[C@@H](C)C(=O)N[C@@H](CCCNC(=N)N)C(=O)N[C@@H](CCCCN)C(=O)N[C@@H](CO)C(=O)N[C@H](C(N)=O)[C@@H](C)O)NC(=O)[C@H](CCC(N)=O)NC1=O (relative stereo) [Peptide 26, AR*G^penMQ*G^penARKST-NH2] | 100 | 90 | – | – |
| CSCC[C@@H]1NC(=O)[C@H](NC(=O)[C@H](CCCNC(=N)N)NC(=O)[C@H](C)N)CCCCNC(=O)CC[C@@H](C(=O)N[C@@H](C)C(=O)N[C@@H](CCCNC(=N)N)C(=O)N[C@@H](CCCCN)C(=O)N[C@@H](CO)C(=O)N[C@H](C(N)=O)[C@@H](C)O)NC(=O)[C@H](CCC(N)=O)NC1=O (relative stereo) [Peptide 31] | 100 | 100 | 5.3 | Ki (LSD1 [1]): 2.3 µM; mode of inhibition (LSD1 [1]): competitive inhibitor |
| CSCC[C@H](NC(=O)[C@@H](NC(=O)[C@H](CCCNC(=N)N)NC(=O)[C@H](C)N)[C@@H](C)O)C(=O)N[C@@H](CCC(N)=O)C(=O)N[C@H](C(=O)N[C@@H](C)C(=O)N[C@@H](CCCNC(=N)N)C(=O)N[C@@H](CCCCN)C(=O)N[C@@H](CO)C(=O)N[C@H](C(=O)NCC(=O)NCC(=O)N[C@@H](CCCCN)C(=O)N[C@@H](C)C(=O)O)[C@@H](C)O)[C@@H](C)O [Peptide 2] | – | – | – | Kd (LSD1 [2]): 5 µM |
| CSCC[C@H](NC(=O)[C@@H](NC(=O)[C@H](CCCNC(=N)N)NC(=O)[C@H](C)N)[C@@H](C)O)C(=O)N[C@@H](CCC(N)=O)C(=O)N[C@H](C(=O)N[C@@H](C)C(=O)N[C@@H](CCCNC(=N)N)C(=O)N[C@@H](CCCCN)C(=O)O)[C@@H](C)O [Peptide 5] | – | – | – | Kd (LSD1 [2]): > 200 µM |
| C=CC[C@H](NC(=O)[C@H](CCCNC(=N)N)NC(=O)[C@@H](N)CC=C)C(=O)N[C@@H](CCSC)C(=O)N[C@@H](CCC(N)=O)C(=O)N[C@H](C(=O)N[C@@H](C)C(=O)N[C@@H](CCCNC(=N)N)C(=O)N[C@@H](CCCCN)C(=O)N[C@@H](CO)C(=O)N[C@H](C(N)=O)[C@@H](C)O)[C@@H](C)O [Peptide 18] | 98 | 98 | – | IC50 (LSD1 [1]): 5 µM |
| CSCC[C@H](NC(=O)[C@@H]1C/C=C\C[C@H](N)C(=O)N[C@@H](CCCNC(=N)N)C(=O)N1)C(=O)N[C@@H](CCC(N)=O)C(=O)N[C@H](C(=O)N[C@@H](C)C(=O)N[C@@H](CCCNC(=N)N)C(=O)N[C@@H](CCCCN)C(=O)N[C@@H](CO)C(=O)N[C@H](C(N)=O)[C@@H](C)O)[C@@H](C)O [Peptide 19] | 100 | 100 | – | – |
| C=CC[C@H](NC(=O)[C@H](CCC(N)=O)NC(=O)[C@H](CCSC)NC(=O)[C@H](CC=C)NC(=O)[C@H](CCCNC(=N)N)NC(=O)[C@H](C)N)C(=O)N[C@@H](C)C(=O)N[C@@H](CCCNC(=N)N)C(=O)N[C@@H](CCCCN)C(=O)N[C@@H](CO)C(=O)N[C@H](C(N)=O)[C@@H](C)O [Peptide 20, ARG^alyMQG^alyARKST-NH2] | 95 | 95 | – | – |
| C=CCCC[C@H](NC(=O)[C@H](CCC(N)=O)NC(=O)[C@H](CCSC)NC(=O)[C@H](CCCC=C)NC(=O)[C@H](CCCNC(=N)N)NC(=O)[C@H](C)N)C(=O)N[C@@H](C)C(=O)N[C@@H](CCCNC(=N)N)C(=O)N[C@@H](CCCCN)C(=O)N[C@@H](CO)C(=O)N[C@H](C(N)=O)[C@@H](C)O [Peptide 22, ARG^penMQG^penARKST-NH2] | 100 | 100 | – | – |
| CSCC[C@@H]1NC(=O)[C@@H](NC(=O)[C@H](CCCNC(=N)N)NC(=O)[C@H](C)N)CCC/C=C\CCC[C@H](C(=O)N[C@@H](C)C(=O)N[C@@H](CCCNC(=N)N)C(=O)N[C@@H](CCCCN)C(=O)N[C@@H](CO)C(=O)N[C@H](C(N)=O)[C@@H](C)O)NC(=O)[C@H](CCC(N)=O)NC1=O [Peptide 25, ARG^penMQ*G^penARKST-NH2] | 95 | 95 | – | – |
| CSCC[C@@H]1NC(=O)[C@@H](NC(=O)[C@H](CCCNC(=N)N)NC(=O)[C@H](C)N)CCC(=O)NCCCC[C@@H](C(=O)N[C@@H](C)C(=O)N[C@@H](CCCNC(=N)N)C(=O)N[C@@H](CCCCN)C(=O)N[C@@H](CO)C(=O)N[C@H](C(N)=O)[C@@H](C)O)NC(=O)[C@H](CCC(N)=O)NC1=O [Peptide 28] | 98 | 98 | 12 | Ki (LSD1 [1]): 4 µM; mode of inhibition (LSD1 [1]): competitive inhibitor |
| CSCC[C@@H]1NC(=O)[C@@H](NC(=O)[C@H](CCCNC(=N)N)NC(=O)[C@H](C)N)CCC(=O)NCCCC[C@@H](C(=O)N[C@@H](C)C(=O)N[C@@H](CCCNC(N)=O)C(=O)N[C@@H](CCCCN)C(=O)N[C@@H](CO)C(=O)N[C@H](C(N)=O)[C@@H](C)O)NC(=O)[C@H](CCC(N)=O)NC1=O [Peptide 34] (H-AREMQKA[Cit]KST-NH2; lactam 3-6) | 97 | 97 | 14 | Ki (LSD1 [1]): 8 µM |
| CSCC[C@@H]1NC(=O)[C@@H](NC(=O)[C@H](CCCNC(=N)N)NC(=O)[C@H](C)N)CCCCn2cc(nn2)C[C@@H](C(=O)N[C@@H](C)C(=O)N[C@@H](CCCNC(=N)N)C(=O)N[C@@H](CCCCN)C(=O)N[C@@H](CO)C(=O)N[C@H](C(N)=O)[C@@H](C)O)NC(=O)[C@H](CCC(N)=O)NC1=O [Peptide 35, ARK^azdMQG^prgARKST-NH2] | – | < 30 | – | inhibition of LSD1 (in words) (LSD1 [1]): weak competitive inhibitors; Ki (LSD1 [1]; read-out: Ki): > 100 µM |
| H3_1-21 K4(Me): N-terminal 21 amino acids of histone H3, mono-N-methylated at Lys4; LSD1 substrate [reference compound] | – | – | – | kcat (LSD1 [1]; substrate of LSD1, 50 mM NaCl): 0.6 s^–1; Km (LSD1 [1]; substrate of LSD1, 50 mM NaCl): 20 µM; Km (LSD1 [1]; substrate of LSD1, 150 mM NaCl): 80 µM; Km (LSD1 [1]; substrate of LSD1, without added NaCl): 10 µM |
